{
  "source": "patent US9789114B2",
  "about": "“Compounds as HIF-1α inhibitors and manufacturing process thereof” (DONGGUK UNIVERSITY INDUSTRY-ACADEMIC COOPERATION FOUNDATION, priority 2011, dated 2017)",
  "data": [
    {"test_system": "HIF-1α-mediated HRE transcriptional activity", "assay": "Assay for inhibition of HIF-1α-mediated transcriptional activity (HRE reporter assay)", "format": "cell-based, human", "conditions": "HCT116 cells, 12 hours under hypoxia (1% O2)", "protocol": "(§1) <Experiment 1> Assay for Inhibition of HIF-1α-Mediated Transcriptional Activity (HRE Reporter Assay)\n(§2) The compounds can be developed as anti-cancer drugs, because the compounds inhibiting HIF-1α-mediated HRE transcriptional activity induced by hypoxia can suppress the growth and metastasis of cancer.\n(§3) Inhibitory effects of the compounds according to the present invention, from Formula I-1 to I-42, on HIF-1α-mediated transcriptional activity were evaluated using this assay. pGL3-HRE-luciferase vector was constructed as follows. Six copies of HRE (Hypoxia Responsive Element, 5′-ACGTG-3′) from human VEGF genes were inserted into the multi-cloning site of a pGL3-basic vector (Promega). A luciferase gene was used as a reporter gene.\n(§4) In detail, HCT116(ATCC #CCL-247) human colon cancer cells were seeded in 48-well cell culture plates. The cells were co-transfected with 25 ng of pGL3-HRE-luciferase and 2.5 ng of Renila control vectors using Polyfect reagent next day. After 24 hours of incubation, the cells were incubated for an additional 4 hours with replaced cell culture media. The cells were treated with various concentrations (0, 1, 3, 5, 10, and 20 μM) of the above compounds according to the present invention and incubated for 12 hours under hypoxia (1% O2, 94% N2, and 5% CO2). The luciferase assay was performed using a dual-luciferase reporter assay system (Promega). After cell lysate preparation with RIPA buffer, induced luciferase activity under hypoxic conditions was determined to examine inhibitory effects of the compounds according to the present invention, from Formula I-1 to I-42, on HIF-1α-mediated transcriptional activity.", "values": [
      {"compound": "CN1CCN(C(=O)COc2ccc(C34CC5CC(CC(C5)C3)C4)cc2)CC1.Cl", "note": "[Compound I-4, 4-(2-(4-(Adamantan-1-yl)phenoxy)acetyl)-1-methylpiperazin-1-ium chloride]", "Inhibitory activity against HIF-1α (10 μM)": "A (A(76˜100%))"}
    ]},
    {"test_system": "HIF-1α-mediated HRE transcriptional activity", "assay": "Assay for inhibition of HIF-1α-mediated transcriptional activity (HRE reporter assay)", "format": "cell-based, human", "conditions": "Homo sapiens, HCT-116, HCT116 cells, 12 hours under hypoxia (1% O2), read-out: Inhibitory activity against HIF-1α (10 μM)", "protocol": "as §1, §2, §3, §4", "units": {"inhibition at 10 µM": "%"}, "values": [
      {"compound": "Cc1cc(C23CC4CC(CC(C4)C2)C3)ccc1OCCC(=O)NCCN(C)C", "note": "[Compound I-13, 3-(4-(Adamantan-1-yl)-2-methylphenoxy)-N-(2-(dimethylamino)ethyl)propanamide]", "inhibition at 10 µM": "51 to 75"},
      {"compound": "C[C@@H]1CNCCN1C(=O)COc1ccc(C23CC4CC(CC(C4)C2)C3)cc1", "note": "[Compound I-34, 2-(4-(Adamantan-1-yl)phenoxy)-1-((R)-2-methylpiperazin-1-yl)ethanone]", "inhibition at 10 µM": "51 to 75"},
      {"compound": "Cc1cc(C23CC4CC(CC(C4)C2)C3)ccc1OCCC(=O)N1CCN(C)CC1", "note": "[Compound I-11, 3-(4-(Adamantan-1-yl)-2-methylphenoxy)-1-(4-methylpiperazin-1-yl)propan-1-one]", "inhibition at 10 µM": "76 to 100"},
      {"compound": "CC(C)(C)OC(=O)N1CCN(C(=O)COc2ccc(C34CC5CC(CC(C5)C3)C4)cc2)CC1", "note": "[Compound I-29, tert-Butyl 4-(2-(4-(adamantan-1-yl)phenoxy)acetyl)piperazine-1-carboxylate]", "inhibition at 10 µM": "51 to 75"},
      {"compound": "Cc1cc(C23CC4CC(CC(C4)C2)C3)ccc1OCCC(=O)N1CC[N+](C)(C)CC1", "note": "[Compound I-20, 4-(3-(4-(Adamantan-1-yl)-2-methylphenoxy)propanoyl)-1,1-dimethylpiperazin-1-ium iodide]", "inhibition at 10 µM": "76 to 100"},
      {"compound": "O=C(COc1ccc(C23CC4CC(CC(C4)C2)C3)cc1)N1CCN(Cc2ccc(C(F)(F)F)cc2)CC1", "note": "[Compound I-27, 2-(4-(Adamantan-1-yl)phenoxy)-1-(4-(4-(trifluoromethyl)benzyl)piperazin-1-yl)ethanone]", "inhibition at 10 µM": "76 to 100"},
      {"compound": "O=C(COc1ccc(C23CC4CC(CC(C4)C2)C3)cc1)Nc1ccc(N2CCS(=O)(=O)CC2)cc1", "note": "[Compound I-38, 2-(4-(Adamantan-1-yl)phenoxy)-N-(4-(1,1-dioxidothiomorpholino)phenyl)acetamide]", "inhibition at 10 µM": "51 to 75"},
      {"compound": "O=C(COc1ccc(C23CC4CC(CC(C4)C2)C3)cc1)N1CCn2c(nnc2C(F)(F)F)C1", "note": "[Compound I-39, 2-(4-(Adamantan-1-yl)phenoxy)-1-(3-(trifluoromethyl)-5,6-dihydro-[1,2,4]triazolo[4,3-a]pyrazin-7(8H)-yl)ethanone]", "inhibition at 10 µM": "26 to 50"},
      {"compound": "Cc1cc(C23CC4CC(CC(C4)C2)C3)ccc1OCCC(=O)NCC[N+](C)(C)C", "note": "[Compound I-21, 2-(3-(4-(Adamantan-1-yl)-2-methylphenoxy)propanamido)-N,N,N-trimethylethanaminium iodide]", "inhibition at 10 µM": "26 to 50"},
      {"compound": "CN1CCN(c2ccc(NC(=O)COc3ccc(C45CC6CC(CC(C6)C4)C5)cc3)cc2)CC1", "note": "[Compound I-37, 2-(4-(Adamantan-1-yl)phenoxy)-N-(4-(4-methylpiperazin-1-yl)phenyl)acetamide]", "inhibition at 10 µM": "1 to 25"},
      {"compound": "CN1CCN(C(=O)CCCOc2ccc(C34CC5CC(CC(C5)C3)C4)cc2)CC1", "note": "[Compound I-14, 4-(4-(Adamantan-1-yl)phenoxy)-1-(4-methylpiperazin-1-yl)butan-1-one]", "inhibition at 10 µM": "51 to 75"},
      {"compound": "O=C(COc1ccc(C23CC4CC(CC(C4)C2)C3)cc1)NC12CC3CC(CC(C3)C1)C2", "note": "[Compound I-40, N-(adamantan-1-yl)-2-(4-(adamantan-1-yl)phenoxy)acetamide]", "inhibition at 10 µM": "1 to 25"},
      {"compound": "C#CCN1CCN(C(=O)COc2ccc(C34CC5CC(CC(C5)C3)C4)cc2)CC1", "note": "[Compound I-36, 2-(4-(Adamantan-1-yl)phenoxy)-1-(4-(prop-2-yn-1-yl)piperazin-1-yl)ethanone]", "inhibition at 10 µM": "51 to 75"},
      {"compound": "Cc1cc(C23CC4CC(CC(C4)C2)C3)ccc1OCC(=O)NCC[N+](C)(C)C", "note": "[Compound I-17, 2-(2-(4-(Adamantan-1-yl)-2-methylphenoxy)acetamido)-N,N,N-trimethylethanaminium iodide]", "inhibition at 10 µM": "26 to 50"},
      {"compound": "CN(C)CCNC(=O)CCOc1ccc(C23CC4CC(CC(C4)C2)C3)cc1", "note": "[Compound I-10, 3-(4-(Adamantan-1-yl)phenoxy)-N-(2-(dimethylamino)ethyl)propanamide]", "inhibition at 10 µM": "26 to 50"},
      {"compound": "C[C@@H]1CN(C(=O)OC(C)(C)C)CCN1C(=O)COc1ccc(C23CC4CC(CC(C4)C2)C3)cc1", "note": "[Compound I-33, (R)-tert-Butyl 4-(2-(4-(Adamantan-1-yl)phenoxy)acetyl)-3-methylpiperazine-1-carboxylate]", "inhibition at 10 µM": "76 to 100"},
      {"compound": "CN(C)C(=O)COc1ccc(C23CC4CC(CC(C4)C2)C3)cc1", "note": "[Compound I-1, 2-(4-(Adamantan-1-yl)phenoxy)-N,N-dimethylacetamide]", "inhibition at 10 µM": "51 to 75"},
      {"compound": "C[C@H]1CN(C(=O)OC(C)(C)C)CCN1C(=O)COc1ccc(C23CC4CC(CC(C4)C2)C3)cc1", "note": "[Compound I-31, (S)-tert-Butyl 4-(2-(4-(adamantan-1-yl)phenoxy)acetyl)-3-methylpiperazine-1-carboxylate]", "inhibition at 10 µM": "76 to 100"},
      {"compound": "Cc1cc(C23CC4CC(CC(C4)C2)C3)ccc1OCCC(=O)N1CCOCC1", "note": "[Compound I-12, 3-(4-(Adamantan-1-yl)-2-methylphenoxy)-1-morpholinopropan-1-one]", "inhibition at 10 µM": "76 to 100"},
      {"compound": "O=C(COc1ccc(C23CC4CC(CC(C4)C2)C3)cc1)NC1CC1", "note": "[Compound I-2, 2-(4-(Adamantan-1-yl)phenoxy)-N-cyclopropylacetamide]", "inhibition at 10 µM": "76 to 100"},
      {"compound": "C[N+]1(C)CCN(C(=O)CCOc2ccc(C34CC5CC(CC(C5)C3)C4)cc2)CC1", "note": "[Compound I-18, 4-(3-(4-(Adamantan-1-yl)phenoxy)propanoyl)-1,1-dimethylpiperazin-1-ium iodide]", "inhibition at 10 µM": "26 to 50"},
      {"compound": "Cc1cc(C23CC4CC(CC(C4)C2)C3)ccc1OCC(=O)N1CCN(C)CC1", "note": "[Compound I-5, 2-(4-(Adamantan-1-yl)-2-methylphenoxy)-1-(4-methylpiperazin-1-yl)ethanone]", "inhibition at 10 µM": "76 to 100"},
      {"compound": "CN1CCN(C(=O)COc2ccc(C34CC5CC(CC(C5)C3)C4)cc2F)CC1", "note": "[Compound I-25, 2-(4-(Adamantan-1-yl)-2-fluorophenoxy)-1-(4-methylpiperazin-1-yl)ethanone]", "inhibition at 10 µM": "51 to 75"},
      {"compound": "C[C@H]1CNCCN1C(=O)COc1ccc(C23CC4CC(CC(C4)C2)C3)cc1", "note": "[Compound I-32, 2-(4-(Adamantan-1-yl)phenoxy)-1-((S)-2-methylpiperazin-1-yl)ethanone]", "inhibition at 10 µM": "76 to 100"},
      {"compound": "O=C(COc1ccc(C23CC4CC(CC(C4)C2)C3)cc1)NCc1ccco1", "note": "[Compound I-26, 2-(4-(Adamantan-1-yl)phenoxy)-N-(furan-2-ylmethyl)acetamide]", "inhibition at 10 µM": "76 to 100"},
      {"compound": "O=C(COc1ccc(C23CC4CC(CC(C4)C2)C3)cc1)N1CCN(CCO)CC1", "note": "[Compound I-35, 2-(4-(Adamantan-1-yl)phenoxy)-1-(4-(2-hydroxyethyl)piperazin-1-yl)ethanone]", "inhibition at 10 µM": "26 to 50"},
      {"compound": "O=C(CCOc1ccc(C23CC4CC(CC(C4)C2)C3)cc1)N1CCOCC1", "note": "[Compound I-9, 3-(4-(Adamantan-1-yl)phenoxy)-1-morpholinopropan-1-one]", "inhibition at 10 µM": "76 to 100"},
      {"compound": "Cc1cc(C23CC4CC(CC(C4)C2)C3)ccc1OCC(=O)NCCN(C)C", "note": "[Compound I-7, 2-(4-(Adamantan-1-yl)-2-methylphenoxy)-N-(2-(dimethylamino)ethyl)acetamide]", "inhibition at 10 µM": "51 to 75"},
      {"compound": "C[N+]1(C)CCN(C(=O)COc2ccc(C34CC5CC(CC(C5)C3)C4)cc2)CC1", "note": "[Compound I-15, 4-(2-(4-(Adamantan-1-yl)phenoxy)acetyl)-1,1-dimethylpiperazine-1-ium iodide]", "inhibition at 10 µM": "26 to 50"},
      {"compound": "CC(C)N1CCN(C(=O)COc2ccc(C34CC5CC(CC(C5)C3)C4)cc2)CC1", "note": "[Compound I-28, 2-(4-(Adamantan-1-yl)phenoxy)-1-(4-isopropylpiperazin-1-yl)ethanone]", "inhibition at 10 µM": "51 to 75"},
      {"compound": "O=C(COc1ccc(C23CC4CC(CC(C4)C2)C3)cc1)N1CCNCC1", "note": "[Compound I-30, 2-(4-(Adamantan-1-yl)phenoxy)-1-(piperazin-1-yl)ethanone]", "inhibition at 10 µM": "76 to 100"},
      {"compound": "CN1CCN(C(=O)COc2ccc(C34CC5CC(CC(C5)C3)C4)cc2Cl)CC1", "note": "[Compound I-42, 2-(4-(Adamantan-1-yl)-2-chlorophenoxy)-1-(4-methylpiperazin-1-yl)ethanone]", "inhibition at 10 µM": "51 to 75"},
      {"compound": "O=C(COc1ccc(C23CC4CC(CC(C4)C2)C3)cc1)NC12CC3CC(CC(O)(C3)C1)C2", "note": "[Compound I-41, 2-(4-(Adamantan-1-yl)phenoxy)-N-(3-hydroxyadamantan-1-yl)acetamide]", "inhibition at 10 µM": "76 to 100"}
    ]}
  ]
}
